Source: paper PMC10218498, “Exploring BenzylethoxyAryl Urea Scaffolds for Multitarget Immunomodulation Therapies” (International Journal of Molecular Sciences, 2023)
Read-outs that look alike come from different tables or passages of the source.

Legend:
CD11b = CD11b relative quantification by flow cytometry in co-cultured THP-1; format: cell-based, human; conditions: 20 μM; for % CD11b: related to non-treated cells; for reduction of CD11b: excess of cancer cells (2:1)
Method: Reducing the expression of CD11b has become a promising target for immune modulation in anti-cancer therapies. For that reason, we decided to study the effect of our compounds on CD11b in THP-1 cells co-cultured with HT-29. We also determine the relative amount of CD80, a common surface marker for monocytes. This study was performed on the collected cell culture from each well and gating living THP-1 cell population.
To study the effect of the compounds on every biological target in co-cultured THP-1 immune cells with cancer cell line HT-29, the compounds were incubated for 24 h/48 h as described before.
To detect membrane CD11b and CD80, after the cell incubation, suspended THP-1 was collected from the cell culture of each sample well, fixed with 4% in PBS paraformaldehyde, and stained with FITC Mouse monoclonal Anti-Human CD80 (Sigma-Aldrich, S. Louis, MO, USA, SAB4700142) and Alexa Fluor® 647 Rabbit monoclonal Anti-CD11b (Merck, S. Louis, MO, USA, #MABF366).

THP-1 cells = assay: Immune cell viability in monoculture and co-cultures with HT-29 by flow cytometry; format: cell-based, human; conditions: for THP-1 living cells compared to control (%), Monocult. THP-1: THP-1 monoculture, 20 μM; for THP-1 living cells compared to control (%), 1:5 HT-29/THP-1, 24 h / THP-1 living cells compared to control (%), 1:5 HT-29/THP-1, 48 h: co-culture 1:5 HT-29/THP-1, 20 μM; for THP-1 living cells compared to control (%), 2:1 HT-29/THP-1, 24 h / THP-1 living cells compared to control (%), 2:1 HT-29/THP-1, 48 h: co-culture 2:1 HT-29/THP-1, 20 μM
Method: From the previous study, we also determined the effect of the selected compounds on the human monocyte cells THP-1 in the described co-cultures. We also assessed the effect of the compounds on the cell viability of monocultured THP-1.
(§1) On the other hand, to study the effect of the compounds on the cell viability in co-culture with THP-1 cells, 10^5 or 2 × 10^5 of the HT-29 cells line per well were seeded and incubated for 24 h, then the medium was changed by one cell culture medium supplemented with IFN-γ (10 ng/mL; human, Invitrogen®, Waltham, MA, USA) and containing 5 × 10^5 or 105, respectively, of THP-1 per well and the corresponding compound at 20 μM or DMSO for the positive control. After 24 h/48 h of incubation, supernatants were collected to determine THP-1 living cells. Additionally, stain cancer cells were collected with trypsin. Both types of suspension cells were fixed with 4% in PBS paraformaldehyde and counted by flow cytometry.

VEGFR-2 = VEGFR-2 (Homo sapiens, UniProt P35968); assay: VEGFR-2 relative quantification by flow cytometry in A-549; format: cell-based; design: Both membrane and total PD-L1 and VEGFR-2 were relatively determined using DMSO-treated cells as a negative control; endogenous in cells; host or cells: A-549; conditions: A-549, 20 µM, 24 h, relative to DMSO control = 100
Method: For these assays, cells were incubated for 24 h in the presence of the corresponding compounds at 20 µM concentration.
To study the effect of the compounds on every biological target in cancer cell lines, the compounds were used at 20 µM dose.
For the assay, 10^5 cells per well were incubated for 24 h with the corresponding dose of the tested compound in a total volume of 500 μL of their growth media.
On the one hand, to detect total PD-L1 and VEGFR-2, after the cell treatments, they were collected and fixed with 4% in PBS paraformaldehyde.
On the other hand, to detect membrane PD-L1 and VEGFR-2, the process was the same, avoiding the treatment with 0.5% in PBS TritonTM X-100 step.

HT-29 cells = assay: Cancer cell viability in monoculture and co-cultures with THP-1 by flow cytometry; format: cell-based, human; conditions: for morphological changes of HT-29 cells: 48 h co-culture with THP-1 at (1:5); for viability at 20 µM: Homo sapiens
Method: We also studied the effect of the selected compounds on tumor cell proliferation in the presence of human monocytic leukemia cell line THP-1. This assay was carried out using HT-29 as the cancer cell line and different proportions of immune cells. Standard proportions for this assay were 1:5 cancer/immune cells. Additionally, we also carried out this assay using a 2:1 proportion of cancer cells as regards immune THP-1 cells. Assays were performed after 24 and 48 h of treatment, using 20 μM doses of selected compounds and BMS-8 as the reference compound.
First, to study the effect of the compounds on the cell viability in monoculture, 10^5 of cancer cell line per well were seeded and incubated for 24 h; then, the corresponding compound at 20 μM or DMSO for the positive control were added. After 24 h of incubation, cancer cells were collected with trypsin and fixed with 4% in PBS paraformaldehyde and counted by flow cytometry.
as §1

ZAP70 = assay: Immunoblotting of OT-1 CTL signaling proteins: ZAP70; format: cell-based, mice; conditions: OT-1, 20 μM, 24 h
From the text: We next studied the effect of our compounds on the signaling cascade downstream of the TCR. […] However, both the expression and phosphorylation of LCK were increased in response to all compounds. The effects on ZAP70 and LAT were more complex, with opposing effects on total protein expression versus phosphorylation. Thus, all compounds modulated signaling downstream of the TCR in a manner that is likely to impact T-cell activation and activity.
CD8+ cells were obtained from the inguinal, axillary, brachial, and mesenteric lymph nodes previously collected from OT-1 mice. Lymph node cells were isolated by mashing through a […] cell strainer. Cells were resuspended in IMDM cell media at a concentration of 0.3 million cells/mL. N4 ovalbumin peptide was added at a concentration of 10 nM, and cells were incubated for 48 h at 5% CO2, 37 °C. On day 2 from recollection, cells were pelleted at 1300 rpm for 5 min and washed with PBS to remove N4 peptide. The cell pellet was resuspended in fresh IMDM media in a new flask in a 0.3 million cells/mL and supplemented with IL-2 at 20 ng/mL. After incubation for a further 48 h (day 4), cells were re-seeded in fresh IMDM media at a concentration of 0.3 million cells/mL supplemented with IL-2 at 20 ng/mL. Cells were cultured for a further 48 h prior to use on day 6 in functional assays.
To study the effect of the compounds in the signaling pathway of CTLs, the compound was incubated for 24 h at 20 μM. After this time, cells were collected and washed twice in PBS and lysed in radioimmunoprecipitation assay (RIPA) lysis buffer (50 mM tris-HCl at pH 7.4, 150 mM sodium chloride, 5 mM EGTA, 0.1% SDS, 1% NP-40, and 1% deoxycholate) supplemented with a protease and phosphatase inhibitor cocktail (mini complete ULTRA Protease tablet and phosSTOP tablet from Roche, Basel, Switzerland). Lysates were clarified by high-speed centrifugation (17,000 rpm for 15 min at 4 °C). Protein concentration was measured using a Micro BCA Protein Assay (Thermo Scientific, Waltham, MA, USA), and 10 μg to 30 μg of total protein were supplemented with 2X SDS sample buffer [tris (pH 6.8), 20% glycerol, 5% SDS, b-mercaptoethanol, and bromophenol blue) and boiled at 95 °C for 5 min. […] Bound Ab was detected by incubation with anti-rabbit and anti-mouse horseradish peroxidase secondary Ab (Cell Signaling Technology) and visualized using the Bio-Rad ChemiDoc MP Imaging System.

[1] = membrane THP-1, 1:5 HT-29/THP-1, 24 h
[2] = membrane THP-1, 2:1 HT-29/THP-1, 48 h
[3] = HT-29 monoculture, 20 μM, read-out: cancer cell viability (%), Monocult. HT-29
[4] = co-culture 1:5 HT-29/THP-1, 20 μM, 24 h, read-out: cancer cell viability (%), 1:5 HT-29/THP-1, 24 h
[5] = co-culture 1:5 HT-29/THP-1, 20 μM, 48 h, read-out: cancer cell viability (%), 1:5 HT-29/THP-1, 48 h
[6] = co-culture 2:1 HT-29/THP-1, 20 μM, 24 h, read-out: cancer cell viability (%), 2:1 HT-29/THP-1, 24 h
[7] = co-culture 2:1 HT-29/THP-1, 20 μM, 48 h, read-out: cancer cell viability (%), 2:1 HT-29/THP-1, 48 h
[8] = co-culture (1:5) HT-29/THP-1, 24 h, 20 μM
[9] = co-culture (2:1) HT-29/THP-1, 24 h, 20 μM

Chain of VEGFR-2 (P35968 20-1356): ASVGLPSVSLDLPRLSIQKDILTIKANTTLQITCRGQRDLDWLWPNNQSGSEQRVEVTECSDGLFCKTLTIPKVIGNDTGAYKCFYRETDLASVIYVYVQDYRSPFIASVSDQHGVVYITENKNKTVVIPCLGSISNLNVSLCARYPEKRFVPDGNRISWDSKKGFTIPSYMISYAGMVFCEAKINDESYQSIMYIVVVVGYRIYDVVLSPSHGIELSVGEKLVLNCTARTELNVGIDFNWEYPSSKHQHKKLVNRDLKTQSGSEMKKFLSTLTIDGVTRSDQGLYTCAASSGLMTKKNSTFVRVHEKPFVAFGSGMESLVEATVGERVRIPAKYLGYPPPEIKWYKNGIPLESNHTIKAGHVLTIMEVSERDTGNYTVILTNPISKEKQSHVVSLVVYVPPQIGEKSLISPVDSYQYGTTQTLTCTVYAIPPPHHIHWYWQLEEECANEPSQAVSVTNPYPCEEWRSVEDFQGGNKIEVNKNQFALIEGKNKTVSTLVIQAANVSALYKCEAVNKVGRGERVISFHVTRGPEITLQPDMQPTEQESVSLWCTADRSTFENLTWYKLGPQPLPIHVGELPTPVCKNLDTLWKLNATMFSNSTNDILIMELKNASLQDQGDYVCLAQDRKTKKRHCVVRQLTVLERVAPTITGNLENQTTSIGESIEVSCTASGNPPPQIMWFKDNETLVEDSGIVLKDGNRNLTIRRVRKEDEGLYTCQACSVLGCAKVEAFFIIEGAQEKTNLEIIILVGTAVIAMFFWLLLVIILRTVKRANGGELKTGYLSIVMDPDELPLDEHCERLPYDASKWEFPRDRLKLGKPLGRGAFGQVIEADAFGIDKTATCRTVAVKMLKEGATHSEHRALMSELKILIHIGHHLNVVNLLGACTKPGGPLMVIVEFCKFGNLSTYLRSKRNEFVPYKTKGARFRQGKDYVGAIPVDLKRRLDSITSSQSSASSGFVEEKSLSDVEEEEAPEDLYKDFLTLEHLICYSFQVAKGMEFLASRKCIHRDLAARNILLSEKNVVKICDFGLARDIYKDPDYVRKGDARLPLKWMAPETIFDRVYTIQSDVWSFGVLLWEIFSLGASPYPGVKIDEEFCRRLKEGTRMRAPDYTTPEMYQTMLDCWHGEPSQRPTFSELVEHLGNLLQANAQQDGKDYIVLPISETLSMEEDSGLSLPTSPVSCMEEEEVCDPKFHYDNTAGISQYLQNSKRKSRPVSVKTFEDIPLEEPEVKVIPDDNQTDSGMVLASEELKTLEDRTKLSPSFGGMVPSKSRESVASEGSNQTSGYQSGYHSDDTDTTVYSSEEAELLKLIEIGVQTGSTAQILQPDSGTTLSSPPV

Row | Total VEGFR-2 (%) (VEGFR-2) | SMILES | % CD11b (CD11b; [1]) [%] | % CD11b (CD11b; [2]) [%] | THP-1 living cells compared to control (%), Monocult. THP-1 (THP-1 cells) [%] | THP-1 living cells compared to control (%), 1:5 HT-29/THP-1, 24 h (THP-1 cells) [%] | THP-1 living cells compared to control (%), 1:5 HT-29/THP-1, 48 h (THP-1 cells) [%] | THP-1 living cells compared to control (%), 2:1 HT-29/THP-1, 24 h (THP-1 cells) [%] | THP-1 living cells compared to control (%), 2:1 HT-29/THP-1, 48 h (THP-1 cells) [%] | morphological changes of HT-29 cells (HT-29 cells; 20 μM) | viability at 20 µM (HT-29 cells; [3]) [%] | viability at 20 µM (HT-29 cells; [4]) [%] | viability at 20 µM (HT-29 cells; [5]) [%] | viability at 20 µM (HT-29 cells; [6]) [%] | viability at 20 µM (HT-29 cells; [7]) [%] | reduction of CD11b (CD11b; 48 h) | ZAP-70 protein expression (Western blot quantification) (ZAP70) | pZAP-70 protein expression (Western blot quantification) (ZAP70) | inhibition of cell viability (HT-29) (HT-29 cells; [8]) [%] | inhibition of cell viability (HT-29) (HT-29 cells; [9]) [%] | cancer cell viability (%), 2:1 HT-29/THP-1, 48 h (HT-29 cells; co-culture 2:1 HT-29/THP-1, 20 μM, 48 h)
1 | 122 ± 13 | Cc1c(COc2ccc(CN3CCCCC3C(=O)O)cc2Br)cccc1-c1ccccc1 (centres unmarked) [BMS-8, reference compound] | 91 ± 1 | 80 ± 2 | 99 ± 2 | 94 ± 0 | 93 ± 0 | 101 ± 9 | 97 ± 2 | retained this epithelial nature, resulting in an increased and brighter cytosolic granulation | 102 ± 23 | 88 ± 3 | 102 ± 12 | 106 ± 10 | 101 ± 3 | – | – | – | – | – | –
2 | 97 ± 12 | COc1ccc(COc2cccc(NC(=O)Nc3ccc(F)cc3)c2)cc1 [Compound 2] | 92 ± 9 | 86 ± 3 | 111 ± 13 | 97 ± 7 | 105 ± 4 | 90 ± 28 | 105 ± 1 | less confluent cultures with a few elongated fibroblast-like appearance cells | 89 ± 7 | 80 ± 4 | 102 ± 16 | 83 ± 5 | 95 ± 5 | about 20% | 34 | 88 | 20 | 20 | –
3 | 141 ± 13 | COc1ccc(COc2cccc(NC(=O)Nc3ccc(Br)cc3)c2)cc1 [Compound 8] | 91 ± 4 | 93 ± 25 | 98 ± 10 | 95 ± 12 | 100 ± 11 | 82 ± 14 | 97 ± 9 | less confluent cultures with a few elongated fibroblast-like appearance cells | 86 ± 9 | 83 ± 13 | 106 ± 8 | 95 ± 16 | 92 ± 20 | – | 37 | 74 | – | – | –
4 | 143 ±10 | COc1ccc(COc2cccc(NC(=O)Nc3ccc(OC)cc3)c2)cc1 [Compound 11] | 95 ± 6 | 83 ± 5 | 103 ± 7 | 105 ± 4 | 94 ± 9 | 66 ± 24 | 102 ± 5 | less confluent cultures with a few elongated fibroblast-like appearance cells | 95 ± 21 | 86 ± 4 | 119 ± 14 | 88 ± 3 | 85 ± 11 | about 20% | 38 | 77 | 20 | 20 | active

Row | SMILES | Total VEGFR-2 (%) (VEGFR-2) | % CD11b (CD11b; [1]) [%] | % CD11b (CD11b; [2]) [%] | THP-1 living cells compared to control (%), Monocult. THP-1 (THP-1 cells) [%] | THP-1 living cells compared to control (%), 1:5 HT-29/THP-1, 24 h (THP-1 cells) [%] | THP-1 living cells compared to control (%), 1:5 HT-29/THP-1, 48 h (THP-1 cells) [%] | THP-1 living cells compared to control (%), 2:1 HT-29/THP-1, 24 h (THP-1 cells) [%] | THP-1 living cells compared to control (%), 2:1 HT-29/THP-1, 48 h (THP-1 cells) [%] | morphological changes of HT-29 cells (HT-29 cells; 20 μM) | viability at 20 µM (HT-29 cells; [3]) [%] | viability at 20 µM (HT-29 cells; [4]) [%] | viability at 20 µM (HT-29 cells; [5]) [%] | viability at 20 µM (HT-29 cells; [6]) [%] | viability at 20 µM (HT-29 cells; [7]) [%] | reduction of CD11b (CD11b; 48 h) | ZAP-70 protein expression (Western blot quantification) (ZAP70) | pZAP-70 protein expression (Western blot quantification) (ZAP70) | inhibition of cell viability (HT-29) (HT-29 cells; [8]) [%] | inhibition of cell viability (HT-29) (HT-29 cells; [9]) [%] | cancer cell viability (%), 2:1 HT-29/THP-1, 48 h (HT-29 cells; co-culture 2:1 HT-29/THP-1, 20 μM, 48 h)
5 | COc1ccc(COc2cccc(NC(=O)Oc3ccccc3)c2)cc1 [Compound 14] | 107 ± 18 | 78 ± 11 | 81 ± 8 | 127 ± 12 | 93 ± 9 | 97 ± 9 | 81 ± 6 | 109 ± 2 | slight loss of cell-to-cell contact and the appearance of clustered cells with irregular surfaces | 82 ± 4 | 90 ± 6 | 97 ± 5 | 88 ± 9 | 85 ± 14 | about 20% | 54 | 108 | – | – | –
